# What was measured:
# Experiment in all cases: biochemical
# Design in all cases: DiscoverX KINOMEscan scanMAX competition binding panel, single concentration, percent of control; remaining binding: dose or concentration left out as unconfirmed
# Settings in all cases: KINOMEscan binding, percent of control; read-out: Table S4_SCANMAX REPORT - related to Fig. 1 / Percent Control
# PAK4 = PAK4 (Homo sapiens, UniProt O96013)
# ZAP70 = ZAP70 (Homo sapiens, UniProt P43403)
# RET(M918T) = RET(M918T) (Homo sapiens, UniProt P07949, M918T)
# YANK2 = target: T1, YANK2 (Homo sapiens, UniProt Q9NY57)
# T1 construct: gene STK32B
# GRK1 = GRK1 (Homo sapiens, UniProt Q15835)
# EGFR = EGFR (Homo sapiens, UniProt P00533)
# PIK4CB = target: T2, PIK4CB (Homo sapiens, UniProt Q9UBF8)
# T2 construct: gene PI4KB
# NEK4 = NEK4 (Homo sapiens, UniProt P51957)
# PDGFRA = PDGFRA (Homo sapiens, UniProt P16234)
# NEK11 = NEK11 (Homo sapiens, UniProt Q8NG66)
# AXL = AXL (Homo sapiens, UniProt P30530)
# PIM1 = PIM1 (Homo sapiens, UniProt P11309)
# SIK2 = SIK2 (Homo sapiens, UniProt Q9H0K1)
# [1] = target: T3, JAK2(JH1domain-catalytic) (Homo sapiens, UniProt O60674)
# T3 construct: JH1domain-catalytic
# LATS2 = LATS2 (Homo sapiens, UniProt Q9NRM7)
# CAMK2A = CAMK2A (Homo sapiens, UniProt Q9UQM7)
# CDKL3 = CDKL3 (Homo sapiens, UniProt Q8IVW4)
# ERBB3 = ERBB3 (Homo sapiens, UniProt P21860)
# TBK1 = TBK1 (Homo sapiens, UniProt Q9UHD2)
# Sequence of TBK1 (Q9UHD2 whole entry): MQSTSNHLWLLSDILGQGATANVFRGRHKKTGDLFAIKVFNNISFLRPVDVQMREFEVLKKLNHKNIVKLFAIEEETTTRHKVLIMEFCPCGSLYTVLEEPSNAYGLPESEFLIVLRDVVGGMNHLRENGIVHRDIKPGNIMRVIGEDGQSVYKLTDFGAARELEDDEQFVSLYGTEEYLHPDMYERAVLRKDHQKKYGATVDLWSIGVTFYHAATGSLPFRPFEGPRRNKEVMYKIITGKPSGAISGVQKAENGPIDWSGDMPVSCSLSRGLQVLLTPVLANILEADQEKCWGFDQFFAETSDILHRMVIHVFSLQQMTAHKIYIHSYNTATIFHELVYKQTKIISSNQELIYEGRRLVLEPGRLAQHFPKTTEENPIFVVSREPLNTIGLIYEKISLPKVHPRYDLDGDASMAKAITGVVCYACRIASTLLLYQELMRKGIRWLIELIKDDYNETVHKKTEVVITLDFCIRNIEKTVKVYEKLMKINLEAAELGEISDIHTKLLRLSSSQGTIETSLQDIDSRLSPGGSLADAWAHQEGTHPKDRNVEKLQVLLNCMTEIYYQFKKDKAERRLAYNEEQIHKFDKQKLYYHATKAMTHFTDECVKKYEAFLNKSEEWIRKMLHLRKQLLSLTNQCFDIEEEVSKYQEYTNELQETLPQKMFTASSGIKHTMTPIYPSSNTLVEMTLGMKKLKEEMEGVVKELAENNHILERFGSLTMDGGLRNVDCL
# T2 sequence (Q9UBF8 whole entry): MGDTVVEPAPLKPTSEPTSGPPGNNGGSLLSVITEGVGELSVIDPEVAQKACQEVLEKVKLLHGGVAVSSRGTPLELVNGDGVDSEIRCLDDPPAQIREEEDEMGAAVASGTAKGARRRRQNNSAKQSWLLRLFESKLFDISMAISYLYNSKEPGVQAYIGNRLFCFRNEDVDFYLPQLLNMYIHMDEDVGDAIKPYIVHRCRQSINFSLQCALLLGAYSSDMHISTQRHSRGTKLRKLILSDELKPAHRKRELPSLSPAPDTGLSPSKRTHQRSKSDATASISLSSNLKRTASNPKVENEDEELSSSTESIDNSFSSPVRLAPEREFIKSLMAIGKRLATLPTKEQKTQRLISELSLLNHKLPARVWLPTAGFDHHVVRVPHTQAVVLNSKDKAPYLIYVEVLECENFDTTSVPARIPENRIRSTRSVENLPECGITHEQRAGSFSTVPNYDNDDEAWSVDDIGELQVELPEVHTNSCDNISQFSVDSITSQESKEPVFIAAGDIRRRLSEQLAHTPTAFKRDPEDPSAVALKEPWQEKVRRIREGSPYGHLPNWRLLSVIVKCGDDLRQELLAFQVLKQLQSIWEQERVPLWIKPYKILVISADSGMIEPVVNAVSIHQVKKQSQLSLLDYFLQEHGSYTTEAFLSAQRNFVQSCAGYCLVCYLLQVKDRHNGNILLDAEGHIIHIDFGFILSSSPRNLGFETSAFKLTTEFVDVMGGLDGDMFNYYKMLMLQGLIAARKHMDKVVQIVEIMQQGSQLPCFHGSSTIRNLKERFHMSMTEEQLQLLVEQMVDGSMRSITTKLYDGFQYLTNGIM
# Sequence of ZAP70 (P43403 whole entry): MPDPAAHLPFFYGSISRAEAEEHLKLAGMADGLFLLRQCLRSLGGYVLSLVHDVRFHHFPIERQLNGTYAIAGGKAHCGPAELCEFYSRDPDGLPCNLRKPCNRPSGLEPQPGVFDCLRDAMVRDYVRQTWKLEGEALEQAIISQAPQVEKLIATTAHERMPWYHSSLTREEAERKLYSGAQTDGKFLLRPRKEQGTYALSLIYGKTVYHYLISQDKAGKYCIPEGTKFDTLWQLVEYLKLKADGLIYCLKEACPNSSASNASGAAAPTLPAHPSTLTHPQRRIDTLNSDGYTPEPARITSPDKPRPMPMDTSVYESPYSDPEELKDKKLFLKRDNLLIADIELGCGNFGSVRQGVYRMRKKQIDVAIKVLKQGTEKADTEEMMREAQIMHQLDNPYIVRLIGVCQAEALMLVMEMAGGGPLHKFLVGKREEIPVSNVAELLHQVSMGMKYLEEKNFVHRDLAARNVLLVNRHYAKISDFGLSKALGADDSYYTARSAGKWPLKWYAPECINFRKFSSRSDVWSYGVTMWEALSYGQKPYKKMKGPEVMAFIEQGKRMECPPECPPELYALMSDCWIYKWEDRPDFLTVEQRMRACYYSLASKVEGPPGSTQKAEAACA
# Sequence of AXL (P30530 whole entry): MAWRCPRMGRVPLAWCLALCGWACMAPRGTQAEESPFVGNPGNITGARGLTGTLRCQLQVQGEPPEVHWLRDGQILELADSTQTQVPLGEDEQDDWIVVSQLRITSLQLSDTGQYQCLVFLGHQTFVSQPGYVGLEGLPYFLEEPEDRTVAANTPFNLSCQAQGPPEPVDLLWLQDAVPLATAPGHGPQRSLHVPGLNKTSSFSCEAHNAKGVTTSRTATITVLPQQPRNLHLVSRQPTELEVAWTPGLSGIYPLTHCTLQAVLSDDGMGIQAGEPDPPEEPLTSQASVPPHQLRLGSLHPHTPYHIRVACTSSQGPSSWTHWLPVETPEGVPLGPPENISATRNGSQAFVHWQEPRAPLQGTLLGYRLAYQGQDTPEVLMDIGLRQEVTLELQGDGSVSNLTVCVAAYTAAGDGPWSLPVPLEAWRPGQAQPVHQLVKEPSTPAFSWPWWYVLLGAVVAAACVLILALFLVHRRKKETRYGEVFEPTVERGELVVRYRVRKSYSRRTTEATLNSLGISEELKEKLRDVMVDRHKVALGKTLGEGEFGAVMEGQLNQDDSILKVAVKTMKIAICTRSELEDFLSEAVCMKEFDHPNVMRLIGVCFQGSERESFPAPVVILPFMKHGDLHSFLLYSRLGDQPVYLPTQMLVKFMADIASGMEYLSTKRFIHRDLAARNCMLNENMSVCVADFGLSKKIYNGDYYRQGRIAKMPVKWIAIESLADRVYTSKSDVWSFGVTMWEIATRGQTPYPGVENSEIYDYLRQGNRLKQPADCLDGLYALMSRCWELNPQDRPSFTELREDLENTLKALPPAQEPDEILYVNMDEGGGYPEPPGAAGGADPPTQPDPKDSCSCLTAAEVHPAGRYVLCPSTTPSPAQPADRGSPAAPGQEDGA
# Sequence of ERBB3 (P21860 whole entry): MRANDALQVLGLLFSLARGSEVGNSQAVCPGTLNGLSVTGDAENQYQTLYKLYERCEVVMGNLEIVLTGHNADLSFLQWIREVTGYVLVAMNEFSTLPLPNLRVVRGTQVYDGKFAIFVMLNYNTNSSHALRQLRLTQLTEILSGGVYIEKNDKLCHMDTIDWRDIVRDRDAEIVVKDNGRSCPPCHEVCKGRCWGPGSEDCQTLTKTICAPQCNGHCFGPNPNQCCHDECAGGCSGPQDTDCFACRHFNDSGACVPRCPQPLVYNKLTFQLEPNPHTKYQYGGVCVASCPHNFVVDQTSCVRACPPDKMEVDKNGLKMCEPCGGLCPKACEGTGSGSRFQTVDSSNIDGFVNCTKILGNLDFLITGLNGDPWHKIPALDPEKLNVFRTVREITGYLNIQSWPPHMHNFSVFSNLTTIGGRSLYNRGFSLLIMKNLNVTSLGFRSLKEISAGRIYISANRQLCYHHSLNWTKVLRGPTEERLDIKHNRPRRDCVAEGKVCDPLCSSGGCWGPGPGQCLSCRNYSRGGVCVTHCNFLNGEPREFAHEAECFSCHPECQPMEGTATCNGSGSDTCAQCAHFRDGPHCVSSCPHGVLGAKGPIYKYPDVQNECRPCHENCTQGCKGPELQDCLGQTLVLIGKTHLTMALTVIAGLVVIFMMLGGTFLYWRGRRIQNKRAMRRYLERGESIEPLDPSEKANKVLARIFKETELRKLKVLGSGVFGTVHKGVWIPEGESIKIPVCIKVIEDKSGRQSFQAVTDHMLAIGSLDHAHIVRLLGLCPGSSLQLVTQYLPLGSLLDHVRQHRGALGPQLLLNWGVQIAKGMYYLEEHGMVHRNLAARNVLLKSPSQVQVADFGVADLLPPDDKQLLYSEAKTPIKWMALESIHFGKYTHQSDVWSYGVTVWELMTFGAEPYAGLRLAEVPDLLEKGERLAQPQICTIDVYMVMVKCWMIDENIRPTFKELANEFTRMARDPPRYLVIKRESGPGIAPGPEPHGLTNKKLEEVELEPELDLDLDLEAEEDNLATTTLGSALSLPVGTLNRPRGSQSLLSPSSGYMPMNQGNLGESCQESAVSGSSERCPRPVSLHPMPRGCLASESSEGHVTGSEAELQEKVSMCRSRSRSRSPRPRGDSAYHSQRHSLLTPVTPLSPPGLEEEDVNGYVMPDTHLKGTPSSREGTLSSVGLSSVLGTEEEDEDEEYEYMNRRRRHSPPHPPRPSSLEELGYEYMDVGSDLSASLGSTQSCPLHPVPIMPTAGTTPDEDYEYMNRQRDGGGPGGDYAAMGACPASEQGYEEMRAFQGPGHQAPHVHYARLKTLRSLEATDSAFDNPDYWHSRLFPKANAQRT
# Sequence of NEK11 (Q8NG66 whole entry): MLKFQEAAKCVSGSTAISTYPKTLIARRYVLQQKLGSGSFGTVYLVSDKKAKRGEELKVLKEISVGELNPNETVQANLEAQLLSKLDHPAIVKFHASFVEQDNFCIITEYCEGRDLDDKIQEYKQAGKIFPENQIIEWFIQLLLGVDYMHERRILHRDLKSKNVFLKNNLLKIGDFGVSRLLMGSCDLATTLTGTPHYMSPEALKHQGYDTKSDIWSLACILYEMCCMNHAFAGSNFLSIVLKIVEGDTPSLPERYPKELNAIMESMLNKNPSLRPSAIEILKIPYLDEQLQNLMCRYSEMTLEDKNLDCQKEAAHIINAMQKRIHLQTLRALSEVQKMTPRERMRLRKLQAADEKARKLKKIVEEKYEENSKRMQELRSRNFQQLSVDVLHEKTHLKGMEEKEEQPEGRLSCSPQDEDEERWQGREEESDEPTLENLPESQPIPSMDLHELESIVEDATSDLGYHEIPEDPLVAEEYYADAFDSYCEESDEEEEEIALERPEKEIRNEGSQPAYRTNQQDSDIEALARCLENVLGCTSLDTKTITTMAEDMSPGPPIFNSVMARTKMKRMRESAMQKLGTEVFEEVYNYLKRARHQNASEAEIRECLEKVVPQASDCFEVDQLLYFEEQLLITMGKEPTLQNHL
compound,measurement,setting,value
c1ccc2c(c1)Sc1ccccc1N2CCN1CCOCC1 [J54],remaining binding,PAK4,99%
same,remaining binding,ZAP70,100%
same,remaining binding,RET(M918T),97%
same,remaining binding,YANK2,100%
same,remaining binding,GRK1,100%
same,remaining binding,EGFR,92%
same,remaining binding,PIK4CB,100%
same,remaining binding,NEK4,100%
same,remaining binding,PDGFRA,100%
same,remaining binding,NEK11,100%
same,remaining binding,AXL,99%
same,remaining binding,PIM1,81%
same,remaining binding,SIK2,97%
same,remaining binding,[1],95%
same,remaining binding,LATS2,90%
same,remaining binding,CAMK2A,78%
same,remaining binding,CDKL3,100%
same,remaining binding,ERBB3,78%
same,remaining binding,TBK1,89%
